Assay results from ChEMBL document CHEMBL3885861, “Open TG-GATES”.
Several values for one entry are separate records, joined by “and”; a condition that tells them apart may be missing. Equal entries are not always repeated.

Species: Rattus norvegicus
Experiment: Open TG-GATES - Regimen: Single
Type: toxicity, organism-based, Sprague-Dawley
Set-up: regimen Single, gender Male, age 6 weeks
Conditions: in vivo, po, route gavage; for LIVER: tissue Liver; for A/G / ALP / ALT / AST / BUN / CRE / Ca / Cl / GLC / IP / K / LDH / Na / PL / RALB / TBIL / TC / TG / TP / gamma-GTP / DBIL: tissue Plasma; for APTT / Bas / Eos / Fbg / Hb / Ht / Lym / MCH / MCHC / MCV / Mono / Neu / PT / Plat / RBC / Ret / WBC: tissue Blood; for KIDNEY_L / KIDNEY_R / KIDNEY_TOTAL: tissue Kidney
[1] = 0 mg/kg, 24 h, dose level Control

COc1ccc2c(c1)c(CC(=O)O)c(C)n2C(=O)c1ccc(Cl)cc1 [INDOMETHACIN]
LIVER [1]: 10.4 g and 11.1 g
A/G [1]: 2.1 and 1.6
ALP [1]: 1109.6 IU/L and 886.6 IU/L
ALT [1]: 39.6 IU/L and 36.4 IU/L
AST [1]: 68 IU/L and 72.6 IU/L
BUN [1]: 18 mg/dL and 13.8 mg/dL
CRE [1]: 0.5 mg/dL and 0.4 mg/dL
Ca [1]: 10.5 mg/dL and 10.7 mg/dL
Cl [1]: 105 meq/L and 102.8 meq/L
GLC [1]: 185.4 mg/dL and 187.8 mg/dL
IP [1]: 8.8 mg/dL and 7.4 mg/dL
K [1]: 5.7 meq/L and 4.3 meq/L
LDH [1]: 106 IU/L and 240.2 IU/L
Na [1]: 138.8 meq/L and 140.6 meq/L
PL [1]: 153.2 mg/dL and 145.8 mg/dL
RALB [1]: 4 g/dL and 3.4 g/dL
TBIL [1]: 0.2 mg/dL and 0.1 mg/dL
TC [1]: 83.2 mg/dL and 72.2 mg/dL
TG [1]: 84 mg/dL and 116 mg/dL
TP [1]: 5.9 g/dL and 5.5 g/dL
gamma-GTP [1]: 1.2 IU/L and 1.4 IU/L
TERMINAL_BW (1 mg/kg, 3 h, dose level Low): 199.2 g
APTT (1 mg/kg, 3 h, dose level Low): 17.2 s
Bas (1 mg/kg, 3 h, dose level Low): 0%
Eos (1 mg/kg, 3 h, dose level Low): 0.6%
Fbg (1 mg/kg, 3 h, dose level Low): 222.4 mg/dL
Hb (1 mg/kg, 3 h, dose level Low): 13.3 g/dL
Ht (1 mg/kg, 3 h, dose level Low): 40%
Lym (1 mg/kg, 3 h, dose level Low): 81.2%
MCH (1 mg/kg, 3 h, dose level Low): 21.8 pg
MCHC (1 mg/kg, 3 h, dose level Low): 33.1%
MCV (1 mg/kg, 3 h, dose level Low): 65.7 fL
Mono (1 mg/kg, 3 h, dose level Low): 8.6%
Neu (1 mg/kg, 3 h, dose level Low): 9.8%
PT (1 mg/kg, 3 h, dose level Low): 12.4 s
Plat (1 mg/kg, 3 h, dose level Low): 99.5 x10_4/uL
RBC (1 mg/kg, 3 h, dose level Low): 610 x10_4/ul
Ret (1 mg/kg, 3 h, dose level Low): 9.6%
WBC (1 mg/kg, 3 h, dose level Low): 95.5 x10_2/uL
KIDNEY_L (1 mg/kg, 3 h, dose level Low): 0.9 g
KIDNEY_R (1 mg/kg, 3 h, dose level Low): 0.9 g
KIDNEY_TOTAL (1 mg/kg, 3 h, dose level Low): 1.8 g
LIVER (1 mg/kg, 3 h, dose level Low): 9.5 g
A/G (1 mg/kg, 3 h, dose level Low): 1.7
ALP (1 mg/kg, 3 h, dose level Low): 1062.4 IU/L
ALT (1 mg/kg, 3 h, dose level Low): 37.4 IU/L
AST (1 mg/kg, 3 h, dose level Low): 68.6 IU/L
BUN (1 mg/kg, 3 h, dose level Low): 11.8 mg/dL
CRE (1 mg/kg, 3 h, dose level Low): 0.5 mg/dL
Ca (1 mg/kg, 3 h, dose level Low): 10.5 mg/dL
Cl (1 mg/kg, 3 h, dose level Low): 105.6 meq/L
DBIL (1 mg/kg, 3 h, dose level Low): 0.018 mg/dL
GLC (1 mg/kg, 3 h, dose level Low): 187.8 mg/dL
IP (1 mg/kg, 3 h, dose level Low): 9 mg/dL
K (1 mg/kg, 3 h, dose level Low): 4.8 meq/L
LDH (1 mg/kg, 3 h, dose level Low): 100 IU/L
Na (1 mg/kg, 3 h, dose level Low): 137.4 meq/L
PL (1 mg/kg, 3 h, dose level Low): 130.4 mg/dL
RALB (1 mg/kg, 3 h, dose level Low): 3.8 g/dL
TBIL (1 mg/kg, 3 h, dose level Low): 0.3 mg/dL
TC (1 mg/kg, 3 h, dose level Low): 75.6 mg/dL
TG (1 mg/kg, 3 h, dose level Low): 41.8 mg/dL
TP (1 mg/kg, 3 h, dose level Low): 6.1 g/dL
gamma-GTP (1 mg/kg, 3 h, dose level Low): 1.6 IU/L
TERMINAL_BW (1 mg/kg, 6 h, dose level Low): 195.5 g
APTT (1 mg/kg, 6 h, dose level Low): 16.7 s
Bas (1 mg/kg, 6 h, dose level Low): 0%
Eos (1 mg/kg, 6 h, dose level Low): 0.6%
Fbg (1 mg/kg, 6 h, dose level Low): 210.6 mg/dL
Hb (1 mg/kg, 6 h, dose level Low): 13.6 g/dL
Ht (1 mg/kg, 6 h, dose level Low): 41.1%
Lym (1 mg/kg, 6 h, dose level Low): 78.8%
MCH (1 mg/kg, 6 h, dose level Low): 21.8 pg
MCHC (1 mg/kg, 6 h, dose level Low): 33.1%
MCV (1 mg/kg, 6 h, dose level Low): 66 fL
Mono (1 mg/kg, 6 h, dose level Low): 9%
Neu (1 mg/kg, 6 h, dose level Low): 11.6%
PT (1 mg/kg, 6 h, dose level Low): 12.5 s
Plat (1 mg/kg, 6 h, dose level Low): 104.4 x10_4/uL
RBC (1 mg/kg, 6 h, dose level Low): 623.2 x10_4/ul
Ret (1 mg/kg, 6 h, dose level Low): 9.4%
WBC (1 mg/kg, 6 h, dose level Low): 102.9 x10_2/uL
KIDNEY_L (1 mg/kg, 6 h, dose level Low): 1 g
KIDNEY_R (1 mg/kg, 6 h, dose level Low): 0.9 g
KIDNEY_TOTAL (1 mg/kg, 6 h, dose level Low): 1.9 g
LIVER (1 mg/kg, 6 h, dose level Low): 8.8 g
A/G (1 mg/kg, 6 h, dose level Low): 1.7
ALP (1 mg/kg, 6 h, dose level Low): 1218.4 IU/L
ALT (1 mg/kg, 6 h, dose level Low): 35.8 IU/L
AST (1 mg/kg, 6 h, dose level Low): 70.6 IU/L
BUN (1 mg/kg, 6 h, dose level Low): 11 mg/dL
CRE (1 mg/kg, 6 h, dose level Low): 0.5 mg/dL
Ca (1 mg/kg, 6 h, dose level Low): 10.2 mg/dL
Cl (1 mg/kg, 6 h, dose level Low): 105.6 meq/L
DBIL (1 mg/kg, 6 h, dose level Low): 0.02 mg/dL
GLC (1 mg/kg, 6 h, dose level Low): 191.4 mg/dL
IP (1 mg/kg, 6 h, dose level Low): 9.4 mg/dL
K (1 mg/kg, 6 h, dose level Low): 5.1 meq/L
LDH (1 mg/kg, 6 h, dose level Low): 83.6 IU/L
Na (1 mg/kg, 6 h, dose level Low): 136.8 meq/L
PL (1 mg/kg, 6 h, dose level Low): 126.4 mg/dL
RALB (1 mg/kg, 6 h, dose level Low): 3.8 g/dL
TBIL (1 mg/kg, 6 h, dose level Low): 0.3 mg/dL
TC (1 mg/kg, 6 h, dose level Low): 75.8 mg/dL
TG (1 mg/kg, 6 h, dose level Low): 53.2 mg/dL
TP (1 mg/kg, 6 h, dose level Low): 6 g/dL
gamma-GTP (1 mg/kg, 6 h, dose level Low): 1.4 IU/L
TERMINAL_BW (1 mg/kg, 9 h, dose level Low): 198.6 g
APTT (1 mg/kg, 9 h, dose level Low): 16.5 s
Bas (1 mg/kg, 9 h, dose level Low): 0%
Eos (1 mg/kg, 9 h, dose level Low): 0.8%
Fbg (1 mg/kg, 9 h, dose level Low): 213 mg/dL
Hb (1 mg/kg, 9 h, dose level Low): 13.1 g/dL
Ht (1 mg/kg, 9 h, dose level Low): 39.4%
Lym (1 mg/kg, 9 h, dose level Low): 83.6%
MCH (1 mg/kg, 9 h, dose level Low): 21.8 pg
MCHC (1 mg/kg, 9 h, dose level Low): 33.3%
MCV (1 mg/kg, 9 h, dose level Low): 65.5 fL
Mono (1 mg/kg, 9 h, dose level Low): 6.6%
Neu (1 mg/kg, 9 h, dose level Low): 9.2%
PT (1 mg/kg, 9 h, dose level Low): 12.6 s
Plat (1 mg/kg, 9 h, dose level Low): 102.1 x10_4/uL
RBC (1 mg/kg, 9 h, dose level Low): 602 x10_4/ul
Ret (1 mg/kg, 9 h, dose level Low): 10.2%
WBC (1 mg/kg, 9 h, dose level Low): 141 x10_2/uL
KIDNEY_L (1 mg/kg, 9 h, dose level Low): 0.9 g
KIDNEY_R (1 mg/kg, 9 h, dose level Low): 1 g
KIDNEY_TOTAL (1 mg/kg, 9 h, dose level Low): 1.9 g
LIVER (1 mg/kg, 9 h, dose level Low): 8 g
A/G (1 mg/kg, 9 h, dose level Low): 2.6
ALP (1 mg/kg, 9 h, dose level Low): 915 IU/L
ALT (1 mg/kg, 9 h, dose level Low): 35.6 IU/L
AST (1 mg/kg, 9 h, dose level Low): 68.2 IU/L
BUN (1 mg/kg, 9 h, dose level Low): 10.6 mg/dL
CRE (1 mg/kg, 9 h, dose level Low): 0.5 mg/dL
Ca (1 mg/kg, 9 h, dose level Low): 10 mg/dL
Cl (1 mg/kg, 9 h, dose level Low): 106.8 meq/L
DBIL (1 mg/kg, 9 h, dose level Low): 0.072 mg/dL
GLC (1 mg/kg, 9 h, dose level Low): 187.4 mg/dL
IP (1 mg/kg, 9 h, dose level Low): 10 mg/dL
K (1 mg/kg, 9 h, dose level Low): 5.1 meq/L
LDH (1 mg/kg, 9 h, dose level Low): 92.8 IU/L
Na (1 mg/kg, 9 h, dose level Low): 137.4 meq/L
PL (1 mg/kg, 9 h, dose level Low): 141.6 mg/dL
RALB (1 mg/kg, 9 h, dose level Low): 3.8 g/dL
TBIL (1 mg/kg, 9 h, dose level Low): 0.5 mg/dL
TC (1 mg/kg, 9 h, dose level Low): 85.8 mg/dL
TG (1 mg/kg, 9 h, dose level Low): 45.2 mg/dL
